Source: patent US6337333B1, “Method of treating autoimmune disease with fludarabine-5′-monophosphate” (priority 1992, dated 2002)

Experiments:
[1] = tested on: Type II collagen-induced arthritis; conditions: cited from earlier work
[2] = tested on: B lymphocytes; test: B lymphocyte proliferative response to mitogen after 18 hr drug pretreatment (3H-thymidine); assay type: cell-based, human; conditions: 18 hr pretreatment, FIG. 1B
Method: (§1) In FIG. 1, freshly isolated PBMC were enriched for T and B lymphocytes using Nylon Wool (see Materials and Methods, Example A). The enriched lymphocyte subpopulations were then incubated for 18 hrs at 37° C. with various concentrations of drug. At the end of the pretreatment period, the cell samples were washed, adjusted to 2×10^5 viable cells/ml, and cultured at 1×10^4/well in flat (B cells) or round (T cells) bottomed 96 well microtiter plates in […]. The T cells were incubated for 3 days with PHA-P ([…]) or Con A (5 μg/ml) and the B cells were cultured for 6 days with either PWM (2 μg/ml) or SAC ({fraction (1/60,000)}). 1 μCi of ^3H-thymidine was added per well during the last 18 hr of culture. The wells were then harvested onto glass fiber filters, and counted in 7 ml of Cytoscint (ICN) on the LKB 1219 Rackbeta scintillation counter. The results are expressed as the mean cpm of triplicate wells.
(§2) Peripheral blood mononuclear cells obtained from normal donors as packed leukocyte preparations were enriched for T and B lymphocytes and pretreated with drug for 18 hrs prior to mitogen stimulation.
(§3) Peripheral blood mononuclear cells enriched for either T or B lymphocytes were incubated for 18 hrs in complete S-10 medium at 37° C. in 12×75 mm culture tubes at 5×10^5 cells/ml. The cells were then washed in S-10 and cultured in triplicate for either 3 (T lymphocytes) or 6 (B lymphocytes) days at 2.5×10^4/well in round bottom 96-well microtiter plates in S-10 medium at 37° C. and a 5% CO2 humidified atmosphere. The wells were pulsed with 1 μCi 3H-thymidine for the last 18 hr of culture, harvested onto glass fiber filters, and counted with 7 ml Cytoscint with a LKB Rackbeta scintillation counter. The results are reported as “percent Suppression”:
(§4) % Suppression={1−(mean cpm exp./mean cpm stim control)}×100

[3] = tested on: T lymphocytes; test: T lymphocyte proliferative response to mitogen after 18 hr drug pretreatment (3H-thymidine); assay type: cell-based, human; conditions: 18 hr pretreatment, FIG. 1A
Method: as §1, §2, §3, §4

[4] = tested on: IgM-RF and IgM production; conditions: therapeutic concentrations of drug; cited from earlier work

For `CC(C)(S)[C@@H](N)C(=O)O` [D-penicillamine], the effect on disease [1] is given as “early onset of the disease”.

In the case of `Nc1nc(F)nc2c1ncn2[C@@H]1O[C@H](CO)[C@@H](O)[C@@H]1O` [F], the “suppression of B lymphocyte's ability to respond to mitogen” value [2] is reported as “suppress” and the “suppression of T lymphocyte's ability to respond to mitogen” value [3] is reported as “suppress”.

In the case of `O=C([O-])c1ccccc1Nc1cc(Cl)ccc1C(=O)[O-].[Na+].[Na+]` [lobenzarit, disodium 4-chloro-2,2′-iminodibenzoate], the “production of IgM” value [4] is given as “suppressed” and the “production of IgM-RF” value [4] is given as “suppressed”.
